Experimental data from patent US8637511B2, “Aminopyrimidines useful as kinase inhibitors” (Vertex Pharmaceuticals Incorporated, priority 2005, dated 2014).
pIC50, pKi: −log10 of the molar value. “And” between values parts separate entries of the source, which are not always exact repeats. Equal entries are not always repeated. Where two headings read alike, the source gives them in different places.

What was measured:
FLT-3 = molecular target: T1, FLT-3 (Homo sapiens, UniProt P36888); assay: FLT-3 inhibition assay, radiometric filter-binding; type: biochemical
T1 sequence (P36888 27-993): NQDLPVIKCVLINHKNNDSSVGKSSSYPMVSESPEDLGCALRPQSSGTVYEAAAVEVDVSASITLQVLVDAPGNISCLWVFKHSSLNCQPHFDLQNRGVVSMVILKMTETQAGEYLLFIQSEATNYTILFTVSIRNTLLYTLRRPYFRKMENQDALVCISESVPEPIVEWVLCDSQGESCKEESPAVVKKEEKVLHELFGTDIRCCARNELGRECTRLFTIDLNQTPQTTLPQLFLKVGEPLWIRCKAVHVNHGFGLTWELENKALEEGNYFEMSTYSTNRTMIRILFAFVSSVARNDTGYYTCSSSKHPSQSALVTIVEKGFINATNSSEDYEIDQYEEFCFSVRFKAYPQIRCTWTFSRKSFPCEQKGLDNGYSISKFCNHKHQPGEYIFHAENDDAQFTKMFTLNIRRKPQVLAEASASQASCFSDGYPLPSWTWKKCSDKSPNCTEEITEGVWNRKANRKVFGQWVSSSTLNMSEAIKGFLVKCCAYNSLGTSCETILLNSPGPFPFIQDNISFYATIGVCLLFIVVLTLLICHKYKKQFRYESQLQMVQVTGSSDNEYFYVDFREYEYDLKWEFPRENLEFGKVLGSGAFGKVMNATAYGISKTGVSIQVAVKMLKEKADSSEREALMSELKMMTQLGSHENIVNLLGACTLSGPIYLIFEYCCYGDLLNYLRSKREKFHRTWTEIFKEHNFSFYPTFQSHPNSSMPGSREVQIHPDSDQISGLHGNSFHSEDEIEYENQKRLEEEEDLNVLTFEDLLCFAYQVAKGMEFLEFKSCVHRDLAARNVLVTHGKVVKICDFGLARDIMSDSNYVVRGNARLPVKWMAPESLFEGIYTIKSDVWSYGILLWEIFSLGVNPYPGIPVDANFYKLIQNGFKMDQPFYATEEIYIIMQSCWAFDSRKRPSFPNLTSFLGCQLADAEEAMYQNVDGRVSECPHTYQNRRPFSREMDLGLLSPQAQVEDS

Colo205 cells = assay: Analysis of cell proliferation and viability; type: cell-based; conditions: Homo sapiens, read-out: IC50 value
Aurora-1 (Aurora B) = Aurora-1 (Aurora B) (Homo sapiens, UniProt Q96GD4); assay: Aurora-1 (Aurora B) inhibition assay (radiometric); type: biochemical; conditions: read-out: Aurora B kinase Ki value
Sequence of Aurora-1 (Aurora B) (Q96GD4 whole entry): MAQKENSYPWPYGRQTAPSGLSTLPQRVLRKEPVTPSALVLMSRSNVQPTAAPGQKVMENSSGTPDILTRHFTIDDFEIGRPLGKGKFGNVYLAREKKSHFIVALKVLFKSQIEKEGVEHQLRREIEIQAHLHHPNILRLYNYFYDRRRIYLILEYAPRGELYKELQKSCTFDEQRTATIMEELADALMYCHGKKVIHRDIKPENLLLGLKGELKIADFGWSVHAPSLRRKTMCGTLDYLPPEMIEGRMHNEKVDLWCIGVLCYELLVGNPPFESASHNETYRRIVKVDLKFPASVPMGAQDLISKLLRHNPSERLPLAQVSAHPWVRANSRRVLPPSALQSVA
Outline: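 Radiometric ^33P incorporation into peptide substrate, with [γ-^33P]-ATP at 800 μM final, in 25 mM HEPES pH 7.5, 10 mM MgCl2, 0.1% BSA, 10% glycerol. Compound preincubated with enzyme for 10 min at 25° C, reaction run 3 h, then captured on phosphocellulose. Ki from initial rates by non-linear regression after background subtraction.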

[1] = COLO 205, Colo205 cells, incubated for 96 hours
[2] = COLO 205, Colo205 cells, incubated for 72 hours

SMILES	pKi (FLT-3)	pIC50 (Colo205 cells; [1])	pKi (Aurora-1 (Aurora B))	pKi (FLT-3; read-out: FLT-3 Ki value)	pIC50 (Colo205 cells; COLO 205, 96 h)	pIC50 (Colo205 cells; [2])
CC1=NN=C(Nc2cc(N3CCC3)nc(Sc3ccc(NC(=O)c4cccc(Cl)c4F)cc3)n2)C1 [Compound 61]	6.00 to 6.82	6.00 to 7.30	≥ 8.00			
Cc1cc(Nc2cc(N3CCC3)nc(Sc3ccc(NC(=O)c4ocnc4C)cc3)n2)n[nH]1 [Compound 167]	6.00 to 6.82	< 6.00	5.70 to 7.30			
CCC(=O)Nc1ccc(Sc2nc(Nc3cc(C)[nH]n3)cc(N3CCC3)n2)cc1 [Compound 14]			7.30 to 8.00 and > 7.60	6.82 to 7.30	6.00 to 7.30	
Cc1cc(Nc2cc(N3CCC3)nc(Sc3ccc(NC(=O)NCc4ccccc4)cc3)n2)n[nH]1 [Compound 74]	6.82 to 7.30	< 6.00	5.70 to 7.30			
COc1ccc(C(=O)Nc2ccc(Sc3nc(Nc4cc(C)n[nH]4)cc(N4CCC4)n3)cc2)cc1 [Compound 117]			7.30 to 8.00	6.00 to 6.82		< 6.70
Cc1cc(Nc2cc(N3CC(C)(O)C3)nc(Sc3ccc(NC(=O)c4ccccc4C(F)(F)F)cc3)n2)[nH]n1 [Compound 115]	6.82 to 7.30		≥ 8.00			6.70 to 7.52
Cc1ccc2cc(Sc3nc(Nc4cc(C)[nH]n4)cc(N4CC(N5CCCC5)C4)n3)ccc2n1 [Compound 182]	6.82 to 7.30		7.30 to 8.00 and > 7.60			≥ 7.52
Cc1cc(Nc2cc(N3CCC3)nc(Sc3ccc(NC(=O)OC(C)(C)C)cc3)n2)n[nH]1 [Compound 26]	6.82 to 7.30	< 6.00	5.70 to 7.30			
Cc1cc(Nc2cc(N3CCC3)nc(Sc3ccc(C(=O)Nc4ccccc4Cl)cc3)n2)[nH]n1 [Compound 48]	6.00 to 6.82	6.00 to 7.30	≥ 8.00			
CC(=O)Nc1cccc(Sc2nc(Nc3cc(C)n[nH]3)cc(N3CC(F)(C4CC4)C3)n2)c1 [Compound 188]	6.82 to 7.30		7.30 to 8.00			< 6.70
Cc1cc(Nc2cc(N3CC(C#N)C3)nc(Sc3ccc(NC(=O)c4ccccc4Cl)cc3)n2)n[nH]1 [Compound 16]	6.82 to 7.30	6.00 to 7.30	≥ 8.00			6.70 to 7.52
Cc1cc(Nc2cc(N3CCC3)nc(Sc3ccc(NC(=O)CC(F)(F)F)cc3)n2)n[nH]1 [Compound 40]	6.82 to 7.30	6.00 to 7.30	≥ 8.00			6.70 to 7.52
CCC(=O)Nc1ccc(Sc2nc(Nc3cc(C)n[nH]3)cc(N3CC(O)(C(C)(C)C)C3)n2)cc1 [Compound 81]		≥ 7.30	≥ 8.00	≥ 7.30		≥ 7.52
Cc1cc(Nc2cc(N3CCC3)nc(Sc3ccc(NC(=O)CCC(F)(F)F)cc3)n2)[nH]n1 [Compound 121]			7.30 to 8.00 and > 7.60	6.82 to 7.30		6.70 to 7.52
Cc1cc(Nc2cc(N3CCC3)nc(Sc3ccc(NC(=O)c4ccc(Cl)cc4Cl)cc3)n2)n[nH]1 [Compound 162]	6.00 to 6.82	6.00 to 7.30	7.30 to 8.00 and > 7.60			
Cc1cc(Nc2cc(N3CC(OC(C)(C)C)C3)nc(Sc3ccc(NC(=O)c4ccccc4Cl)cc3)n2)[nH]n1 [Compound 66]	6.00 to 6.82	6.00 to 7.30	≥ 8.00			
Cc1cc(Nc2cc(N3CCC3)nc(Sc3ccc(NC(=O)Cc4cccc(Cl)c4)cc3)n2)[nH]n1 [Compound 58]		6.00 to 7.30	7.30 to 8.00 and > 7.60	6.00 to 6.82		
Cc1cc(Nc2cc(N3CCC3)nc(Oc3ccc(NC(=O)c4ccccc4C(F)(F)F)cc3)n2)[nH]n1 [Compound 134]	6.82 to 7.30		7.30 to 8.00 and > 7.60			6.70 to 7.52

SMILES	pKi (FLT-3)	pIC50 (Colo205 cells; [1])	pKi (Aurora-1 (Aurora B))	pKi (FLT-3; read-out: FLT-3 Ki value)	pIC50 (Colo205 cells; COLO 205, 96 h)	pIC50 (Colo205 cells; [2])
Cc1cc(Nc2cc(N3CCC3)nc(Sc3ccc(NC(=O)C4CCCCC4)cc3)n2)n[nH]1 [Compound 30]		6.00 to 7.30	7.30 to 8.00	6.00 to 6.82		
Cc1cc(Nc2cc(N3CC(C)C3)nc(Sc3ccc(NC(=O)c4ccccc4Cl)cc3)n2)n[nH]1 [Compound 39]	6.82 to 7.30	6.00 to 7.30	7.30 to 8.00 and > 7.60			
CCC(=O)Nc1ccc(Sc2nc(Nc3cc(C)n[nH]3)cc(N3CC(O)(C(F)(F)F)C3)n2)cc1 [Compound 94]	≥ 7.30	6.00 to 7.30	7.30 to 8.00 and > 7.60			
Cc1cnc(Nc2cc(N3CC(O)C3)nc(Sc3ccc(NC(=O)C4CC4)cc3)n2)s1 [Compound 3]	≥ 7.30	< 6.00	≥ 8.00			
Cc1cc(Nc2cc(N3CCC3)nc(Sc3ccc(C(=O)NC4CCCC4)cc3)n2)n[nH]1 [Compound 23]		< 6.00	5.70 to 7.30	6.00 to 6.82		
COC1CN(c2cc(Nc3cc(C)n[nH]3)nc(Sc3ccc(NC(=O)c4ccccc4C(F)(F)F)cc3)n2)C1 [Compound 126]	6.82 to 7.30		≥ 8.00			6.70 to 7.52
Cc1cc(Nc2cc(N3CCC3)nc(Sc3ccc(NC(=O)Cc4ccccc4)cc3)n2)n[nH]1 [Compound 35]	6.82 to 7.30	6.00 to 7.30	7.30 to 8.00			
Cc1cc(Nc2cc(N3CCC3)nc(Sc3ccc(NC(=O)c4cc(C)nc(Cl)c4)cc3)n2)[nH]n1 [Compound 149]			7.30 to 8.00	6.00 to 6.82		< 6.70
CCC(=O)Nc1ccc(Sc2nc(Nc3cc(C)n[nH]3)cc(N3CC(C)(OC(C)C)C3)n2)cc1 [Compound 95]	6.82 to 7.30	≥ 7.30	7.30 to 8.00 and > 7.60			
Cc1cc(Nc2cc(N3CC(F)(C4CC4)C3)nc(Sc3ccc4nc(C(F)(F)F)cn4c3)n2)[nH]n1 [Compound 190]	6.00 to 6.82		7.30 to 8.00			6.70 to 7.52
Cc1cc(Nc2cc(N3CCC3)nc(Sc3ccc(NC(=O)C(F)(F)F)cc3)n2)[nH]n1 [Compound 158]			≥ 8.00	6.82 to 7.30		< 6.70
CCC(=O)Nc1ccc(Sc2nc(Nc3cc(C)[nH]n3)cc(N3CC(O)C3)n2)cc1 [Compound 15]	6.82 to 7.30	6.00 to 7.30	7.30 to 8.00 and > 7.60			
CCC(=O)Nc1ccc(Sc2nc(Nc3cc(C4CC4)n[nH]3)cc(N3CC(C)(O)C3)n2)cc1 [Compound 76]	≥ 7.30	6.00 to 7.30	≥ 8.00			
Cc1cc(Nc2cc(N3CCC3)nc(Sc3ccc(NC(=O)c4ccccc4N(C)C)cc3)n2)[nH]n1 [Compound 124]			5.70 to 7.30	6.00 to 6.82		< 6.70
Cc1cc(Nc2cc(N3CCC3)nc(Sc3ccc(C(=O)NCc4ccccc4Cl)cc3)n2)n[nH]1 [Compound 24]	6.00 to 6.82	< 6.00	5.70 to 7.30			
Cc1cnc(Nc2cc(N3CCC3)nc(Sc3ccc(NC(=O)C4CC4)cc3)n2)s1 [Compound 4]	6.82 to 7.30	6.00 to 7.30	5.70 to 7.30			
Cc1cc(Nc2cc(N3CCC3)nc(Sc3ccc(NC(=O)c4ccc(F)cc4F)cc3)n2)n[nH]1 [Compound 44]	6.00 to 6.82	6.00 to 7.30	7.30 to 8.00			
Cc1cc(Nc2cc(N3CC(F)C3)nc(Sc3ccc(NC(=O)c4ccccc4Cl)cc3)n2)[nH]n1 [Compound 60]		6.00 to 7.30	7.30 to 8.00	6.82 to 7.30		
